Measured values from patent US8299079B2, “Preparations and methods for ameliorating or reducing presbyopia” (priority 2009, dated 2012).
Values joined by “and” are separate entries in the source; they are usually repeats but may differ in a detail not shown here. Equal entries are not always repeated.

Columns and labels:
[1] = test system: pupil diameter of patients suffering from presbyopia; assay: Preliminary evaluation: pupil diameter after pilocarpine alone or with brimonidine; assay type: in vivo, human
Procedure: (§1) The effect of pilocarpine alone or in combination with brimonidine on near visual acuity (VA) for patients suffering from presbyopia was evaluated. Initially, 10 patients were selected for preliminary evaluation. Each patient was administered with one drop of a formulation containing 0.25%, 0.5%, or 1.0% pilocarpine with or without one drop of a formulation containing 0.2% brimonidine. Thus, the following six dosages were initially tested: • 1. 0.25% pilocarpine, • 2. 0.5% pilocarpine, • 3. 1.0% pilocarpine, • 4. 0.25% pilocarpine and 0.2% brimonidine, • 5. 0.5% pilocarpine and 0.2% brimonidine, and • 6. 1.0% pilocarpine and 0.2% brimonidine.

[2] = test system: near visual acuity (VA) for patients suffering from presbyopia; assay: Preliminary evaluation: near visual acuity after pilocarpine alone or with brimonidine; assay type: in vivo, human
Procedure: as §1

What does the source list for `CC[C@@H]1C(=O)OC[C@@H]1Cc1cncn1C` [Pilo Alone, pilocarpine]?
Pupil ([1]; Pilo alone 0.25%, 1 hr): 3 and 3.5 and 2.5 and 3.3; Pupil ([1]; Pilo alone 0.25%, 2 hrs): 4 and 3.5 and 3; Pupil ([1]; Pilo alone 0.25%, 4 hrs): 4; Pupil ([1]; Pilo alone 0.5%, 1 hr): 2.5 and 3.8 and 3; Pupil ([1]; Pilo alone 0.5%, 2 hrs): 3 and 4 and 2.5 and 3.3; Pupil ([1]; Pilo alone 0.5%, 4 hrs): 3.3 and 4 and 3 and 4.2; Pupil ([1]; Pilo alone 1%, 1 hr): 2.5 and 1.5 and 3; Pupil ([1]; Pilo alone 1%, 2 hrs): 3 and 1.5 and 2.5; Pupil ([1]; Pilo alone 1%, 4 hrs): 4 and 2.5 and 3; duration of effect on visual acuity (wear out) ([2]; 1, 2, 4 hrs after administration): appears to wear out fairly quickly; nVA ([2]; Pilo alone 0.25%, 2 hrs): 3 J and 5 J and 6 J; nVA ([2]; Pilo alone 0.5%, 1 hr): 3 J and 6 J and 5 J; nVA ([2]; Pilo alone 0.5%, 2 hrs): 5 J and 3 J; nVA ([2]; Pilo alone 0.5%, 4 hrs): 5 J and 3 J

For `Brc1c(NC2=NCCN2)ccc2nccnc12` [brimonidine], which “effect on the pupil (potentiation of pilocarpine)” value ([1]; brimonidine combined with pilocarpine) is on record?
Its value is “potentiates the effect of pilocarpine on the pupil”.
